Experiments:
green foxtail [1] = test: postemergence herbicidal activity on green foxtail; assay type: in vivo; settings: Setaria viridis, post-emergence, 0.3 Kg/Ha, after 12-17 days, read-out: POSTEMERGENCE HERBICIDAL ACTIVITY (% CONTROL) SETVI
Procedure: (§1) The (oxaalkyl)phenyl-substituted heterocycles of this invention were tested for pre- and postemergence herbicidal activity using a variety of crops and weeds. The test plants included soybean (Glycine max var. Winchester),field corn (Zea mays var. Pioneer 3732), wheat (Triticum aestivum var. Lew), morningglory (Ipomea lacunosa or Ipomea hederacea), […] (Abutilon theophrasti), green foxtail (Setaria viridis), Johnsongrass (Sorghum halepense), blackgrass (Aloepecurus myosuroides), common chickweed (Stellaria media), and common cocklebur (Xanthium strumarium L.).
(§2) For preemergence testing, two disposable fiber flats (8 cm×15 cm×25 cm) for each rate of application of each candidate herbicide were filled to an approximate depth of 6.5 cm with steam-sterilized sandy loam soil. The soil was leveled and impressed with a template to provide five evenly spaced furrows 13 cm long and 0.5 cm deep in each flat. Seeds of soybean, wheat, corn, green foxtail, and johnsongrass were planted in the furrows of the first flat, and seeds of velvetleaf, morningglory, common chickweed, cocklebur, and blackgrass were planted in the furrows of the second flat. The five-row template was employed to firmly press the seeds into place. A topping soil of equal portions of sand and sandy loam soil was placed uniformly on top of each flat to a depth of approximately 0.5 cm. Flats for postemergence testing were prepared in the same manner except that they were planted 9-14 days prior to the preemergence flats and were placed in a greenhouse and watered, thus allowing the seeds to germinate and the foliage to develop.
(§3) In both pre- and postemergence tests, a stock solution of the candidate herbicide was prepared by dissolving 0.27 g of the compound in 20 mL of water/acetone (50/50) containing 0.5% v/v sorbitan monolaurate. For an application rate of 3000 g/ha of herbicide a 10 mL portion of the stock solution was diluted with water/acetone (50/50) to 45 mL.
(§4) The preemergence flats were initially subjected to a light water spray. The four flats were placed two by two along a conveyor belt (i.e., the two preemergence followed by the two postemergence flats). The conveyor belt fed under a spray nozzle mounted about ten inches above the postemergent foliage. The preemergent flats were elevated on the belt so that the soil surface was at the same level below the spray nozzle as the foliage canopy of the postemergent plants. The spray of herbicidal solution was commenced and once stabilized, the flats were passed under the spray at a speed to receive a coverage equivalent of 1000 L/ha. At this coverage the application rates are those shown in the above table for the individual herbicidal solutions. The preemergence flats were watered immediately thereafter, placed in the greenhouse and watered regularly at the soil surface. The postemergence flats were immediately placed in the green-house and not watered until 24 hours after treatment with the test solution. Thereafter they were regularly watered at ground level. After 12-17 days the plants were examined and the phytotoxicity data were recorded.
(§5) Phytotoxicity data were taken as percent control. Percent control was by a method similar to the 0 to 1 00 rating system disclosed in "Research Methods in Weed Science," 2nd ed., B. Truelove, Ed.; Southern Weed Science Society; Auburn University, Auburn, Ala., 1977.

cocklebur = test: postemergence herbicidal activity on cocklebur; assay type: in vivo, Xanthium strumarium L.; settings: Xanthium strumarium, post-emergence, 0.3 Kg/Ha, after 12-17 days, read-out: POSTEMERGENCE HERBICIDAL ACTIVITY (% CONTROL) XANPE
Procedure: as §1, §2, §3, §4, §5

soybean [2] = test: preemergence herbicidal activity on soybean; assay type: in vivo, Glycine max var. Winchester; settings: Glycine max, pre-emergence, 0.3 Kg/Ha, after 12-17 days, read-out: PREEMERGENCE HERBICIDAL ACTIVITY (% CONTROL) SOY
Procedure: as §1, §2, §3, §4, §5

blackgrass [3] = test: postemergence herbicidal activity on blackgrass; assay type: in vivo, Aloepecurus myosuroides; settings: Alopecurus myosuroides, post-emergence, 0.3 Kg/Ha, after 12-17 days, read-out: POSTEMERGENCE HERBICIDAL ACTIVITY (% CONTROL) ALOMY
Procedure: as §1, §2, §3, §4, §5

blackgrass [4] = test: preemergence herbicidal activity on blackgrass; assay type: in vivo, Aloepecurus myosuroides; settings: Alopecurus myosuroides, pre-emergence, 0.3 Kg/Ha, after 12-17 days, read-out: PREEMERGENCE HERBICIDAL ACTIVITY (% CONTROL) ALOMY
Procedure: as §1, §2, §3, §4, §5

chickweed [5] = test: preemergence herbicidal activity on chickweed; assay type: in vivo; settings: Stellaria media, pre-emergence, 0.3 Kg/Ha, after 12-17 days, read-out: PREEMERGENCE HERBICIDAL ACTIVITY (% CONTROL) STEME
Procedure: as §1, §2, §3, §4, §5

johnsongrass [6] = test: preemergence herbicidal activity on johnsongrass; assay type: in vivo; settings: Sorghum halepense, pre-emergence, 0.3 Kg/Ha, after 12-17 days, read-out: PREEMERGENCE HERBICIDAL ACTIVITY (% CONTROL) SORHA
Procedure: as §1, §2, §3, §4, §5

corn [7] = test: postemergence herbicidal activity on corn; assay type: in vivo, Zea mays var. Pioneer 3732; settings: Zea mays, post-emergence, 0.3 Kg/Ha, after 12-17 days, read-out: POSTEMERGENCE HERBICIDAL ACTIVITY (% CONTROL) CRN
Procedure: as §1, §2, §3, §4, §5

morningglory [8] = test: postemergence herbicidal activity on morningglory; assay type: in vivo, Ipomea lacunosa or Ipomea hederacea; settings: Ipomoea, post-emergence, 0.3 Kg/Ha, after 12-17 days, read-out: POSTEMERGENCE HERBICIDAL ACTIVITY (% CONTROL) IPOSS
Procedure: as §1, §2, §3, §4, §5

johnsongrass [9] = test: postemergence herbicidal activity on johnsongrass; assay type: in vivo; settings: Sorghum halepense, post-emergence, 0.3 Kg/Ha, after 12-17 days, read-out: POSTEMERGENCE HERBICIDAL ACTIVITY (% CONTROL) SORHA
Procedure: as §1, §2, §3, §4, §5

wheat [10] = test: preemergence herbicidal activity on wheat; assay type: in vivo, Triticum aestivum var. Lew; settings: Triticum aestivum, pre-emergence, 0.3 Kg/Ha, after 12-17 days, read-out: PREEMERGENCE HERBICIDAL ACTIVITY (% CONTROL) WHT
Procedure: as §1, §2, §3, §4, §5

morningglory [11] = test: preemergence herbicidal activity on morningglory; assay type: in vivo, Ipomea lacunosa or Ipomea hederacea; settings: Ipomoea, pre-emergence, 0.3 Kg/Ha, after 12-17 days, read-out: PREEMERGENCE HERBICIDAL ACTIVITY (% CONTROL) IPOSS
Procedure: as §1, §2, §3, §4, §5

corn [12] = test: preemergence herbicidal activity on corn; assay type: in vivo, Zea mays var. Pioneer 3732; settings: Zea mays, pre-emergence, 0.3 Kg/Ha, after 12-17 days, read-out: PREEMERGENCE HERBICIDAL ACTIVITY (% CONTROL) CRN
Procedure: as §1, §2, §3, §4, §5

velvetleaf [13] = test: postemergence herbicidal activity on velvetleaf; assay type: in vivo; settings: Abutilon theophrasti, post-emergence, 0.3 Kg/Ha, after 12-17 days, read-out: POSTEMERGENCE HERBICIDAL ACTIVITY (% CONTROL) ABUTH
Procedure: as §1, §2, §3, §4, §5

wheat [14] = test: postemergence herbicidal activity on wheat; assay type: in vivo, Triticum aestivum var. Lew; settings: Triticum aestivum, post-emergence, 0.3 Kg/Ha, after 12-17 days, read-out: POSTEMERGENCE HERBICIDAL ACTIVITY (% CONTROL) WHT
Procedure: as §1, §2, §3, §4, §5

green foxtail [15] = test: preemergence herbicidal activity on green foxtail; assay type: in vivo; settings: Setaria viridis, pre-emergence, 0.3 Kg/Ha, after 12-17 days, read-out: PREEMERGENCE HERBICIDAL ACTIVITY (% CONTROL) SETVI
Procedure: as §1, §2, §3, §4, §5

velvetleaf [16] = test: preemergence herbicidal activity on velvetleaf; assay type: in vivo; settings: Abutilon theophrasti, pre-emergence, 0.3 Kg/Ha, after 12-17 days, read-out: PREEMERGENCE HERBICIDAL ACTIVITY (% CONTROL) ABUTH
Procedure: as §1, §2, §3, §4, §5

chickweed [17] = test: postemergence herbicidal activity on chickweed; assay type: in vivo; settings: Stellaria media, post-emergence, 0.3 Kg/Ha, after 12-17 days, read-out: POSTEMERGENCE HERBICIDAL ACTIVITY (% CONTROL) STEME
Procedure: as §1, §2, §3, §4, §5

soybean [18] = test: postemergence herbicidal activity on soybean; assay type: in vivo, Glycine max var. Winchester; settings: Glycine max, post-emergence, 0.3 Kg/Ha, after 12-17 days, read-out: POSTEMERGENCE HERBICIDAL ACTIVITY (% CONTROL) SOY
Procedure: as §1, §2, §3, §4, §5

## CCCCCCNC(=O)OCC(Cl)Cc1cc(-n2nc(C)n(C(F)F)c2=O)c(F)cc1Cl (stereo not drawn) [Compound 36]
Green foxtail [1]
  activity at 300 g/ha: 80%
cocklebur
  activity at 300 g/ha: 100%
Soybean [2]
  activity at 300 g/ha: 70%
Blackgrass [3]
  activity at 300 g/ha: 50%
Blackgrass [4]
  activity at 300 g/ha: 50%
Chickweed [5]
  activity at 300 g/ha: 60%
Johnsongrass [6]
  activity at 300 g/ha: 70%
Corn [7]
  activity at 300 g/ha: 80%
Morningglory [8]
  activity at 300 g/ha: 100%
Johnsongrass [9]
  activity at 300 g/ha: 75%
Wheat [10]
  activity at 300 g/ha: 30%
Morningglory [11]
  activity at 300 g/ha: 100%
Corn [12]
  activity at 300 g/ha: 30%
Velvetleaf [13]
  activity at 300 g/ha: 100%
Wheat [14]
  activity at 300 g/ha: 30%
Green foxtail [15]
  activity at 300 g/ha: 100%
Velvetleaf [16]
  activity at 300 g/ha: 100%
Chickweed [17]
  activity at 300 g/ha: 100%
Soybean [18]
  activity at 300 g/ha: 80%

## CCNC(=O)OCC(Cl)Cc1cc(-n2nc(C)n(C(F)F)c2=O)c(F)cc1Cl (stereo not drawn) [Compound 32]
Green foxtail [1]
  activity at 300 g/ha: 100%
cocklebur
  activity at 300 g/ha: 100%
Soybean [2]
  activity at 300 g/ha: 100%
Blackgrass [3]
  activity at 300 g/ha: 70%
Blackgrass [4]
  activity at 300 g/ha: 75%
Chickweed [5]
  activity at 300 g/ha: 90%
Johnsongrass [6]
  activity at 300 g/ha: 95%
Corn [7]
  activity at 300 g/ha: 80%
Morningglory [8]
  activity at 300 g/ha: 95%
Johnsongrass [9]
  activity at 300 g/ha: 90%
Wheat [10]
  activity at 300 g/ha: 40%
Morningglory [11]
  activity at 300 g/ha: 95%
Corn [12]
  activity at 300 g/ha: 70%
Velvetleaf [13]
  activity at 300 g/ha: 100%
Wheat [14]
  activity at 300 g/ha: 40%
Green foxtail [15]
  activity at 300 g/ha: 100%
Velvetleaf [16]
  activity at 300 g/ha: 100%
Chickweed [17]
  activity at 300 g/ha: 100%
Soybean [18]
  activity at 300 g/ha: 95%

## Cc1nn(-c2cc(CC(Cl)COC(=O)NC3CCCCC3)c(Cl)cc2F)c(=O)n1C(F)F (stereo not drawn) [Compound 35]
Green foxtail [1]
  activity at 300 g/ha: 80%
cocklebur
  activity at 300 g/ha: 100%
Soybean [2]
  activity at 300 g/ha: 30%
Blackgrass [3]
  activity at 300 g/ha: 30%
Blackgrass [4]
  activity at 300 g/ha: 30%
Chickweed [5]
  activity at 300 g/ha: 100%
Johnsongrass [6]
  activity at 300 g/ha: 50%
Corn [7]
  activity at 300 g/ha: 70%
Morningglory [8]
  activity at 300 g/ha: 80%
Johnsongrass [9]
  activity at 300 g/ha: 60%
Wheat [10]
  activity at 300 g/ha: 20%
Morningglory [11]
  activity at 300 g/ha: 90%
Corn [12]
  activity at 300 g/ha: 10%
Velvetleaf [13]
  activity at 300 g/ha: 100%
Wheat [14]
  activity at 300 g/ha: 25%
Green foxtail [15]
  activity at 300 g/ha: 100%
Velvetleaf [16]
  activity at 300 g/ha: 100%
Chickweed [17]
  activity at 300 g/ha: 30%
Soybean [18]
  activity at 300 g/ha: 80%

Source: patent publication USH1923H, “Herbicidal (oxaalkyl) phenyl-substituted heterocycles” (FMC Corporation, priority 1998, dated 2000)
